Experimental findings from PubChem BioAssay AID1794802 (Yongcheng Song lab at Baylor College of Medicine, 2022) are described below.

Molecules are shown by their SMILES. Active and inactive are the calls of the source.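 Rule for the calls: active = EC50 under 50 µM in a live-cell viability test; inactive = the rest.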

The test system of this assay is Molm13 AML cells, XTT viability. Description: Molm13 antiproliferative activity – cell-based, XTT viability, AHD inhibitor project, dose response (AID 1794802). (Tetrazolium assays rely on reduction of a dye to a coloured formazan, in cell work by metabolically active cells.)
As usually defined, the EC50 is the concentration needed to bring the measured effect to its halfway point. As for `O=C(NCC1CCNCC1)c1cc2cc(-c3cn[nH]c3)ccc2[nH]1`, the EC50 was > 51 µM (inactive).

With `NCc1ccc(-c2ccc3cc(C(=O)NCC4CCNCC4)oc3c2)cc1`, the EC50 was > 51 µM (inactive).

In the case of `O=C(NCC1CCNCC1)c1cc2ccc(-c3ccc(N4CCCC4)cc3)cc2s1`, the 50% effective concentration (EC50) was 9.4 µM.

On to `O=C(NCC1CCNCC1)c1c[nH]c2cc(-c3ccc(N4CCCC4)cc3)ccc12`, for which the EC50 was 50 µM.

`NC(=O)c1ccc(-c2ccc3cc(C(=O)NCC4CCNCC4)sc3c2)cc1`: the EC50 was > 51 µM (inactive).

As to `O=C(NCC1CCNCC1)c1cc2cc(-c3ccc(N4CCCCC4)cc3)ccc2[nH]1`, the EC50 is 10 µM.

Take `O=C(NCC1CCNCC1)c1c[nH]c2cc(-c3ccc(N4CCCCC4)cc3)ccc12`: the EC50 was 29 µM.

As to `O=C(NCC1CCNCC1)c1cc2ccc(-c3ccc(N4CCCCC4)cc3)cc2s1`, the EC50 was 4.7 µM.

Take `O=C(NCC1CCNCC1)c1coc2cc(-c3ccc(N4CCCCC4)cc3)ccc12`: the EC50 was 13 µM.

Turning to `O=C(NCC1CCNCC1)c1cc2cc(-c3ccc(N4CCCCC4)cc3)ccc2s1`, the EC50 is 5.1 µM.
